Source: patent publication US20080299118A1, “FXR Agonists for the Treatment of Malignancies” (Wyeth, priority 2007, published 2008)

Tests used:
RECK gene [1] = assay: Kinetics of induction of RECK expression in liver after a single dose, wildtype and FXR deficient mice; format: in vivo, mouse; details: wildtype mice, single dose 30 mg/kg by oral gavage
Method: Wildtype or FXR deficient male and female mice were administered a single dose of vehicle or 30 mg/kg Compound A by oral gavage. Mice were euthanized at various times after treatment and real-time PCR analysis of liver RNA was performed.
RECK expression levels were normalized to GAPDH, and the mean level of RECK expression at t=0 was defined as 1.0. […] The kinetics of induction of RECK expression by Compound A are consistent with direct induction of RECK expression by FXR activation.

RECK gene [2] = assay: RECK expression in mouse primary hepatocytes, real-time PCR; format: cell-based; details: 1 μM; for RECK expression, fold induction relative to t=0: normalized to GAPDH, p<0.01
Method: Mouse primary hepatocytes were plated at 1.5×10^5 cells per well in 24-well plates and cultured in Williams E medium supplemented with 15 mM HEPES pH 7.4, 1% insulin-transferrin-selenium supplement, 1 nM dexamethasone, 50 U/ml penicillin, and 50 μg/ml streptomycin. Cells were treated with DMSO vehicle or with the FXR agonists, Compound A or Compound B ((E)-3-(2-chloro-4-((3-(2,6-dichlorophenyl)-5-isopropylisoxazol-4-yl)methoxy)styryl)benzoic acid). Cells were harvested at various times after treatment and RNA was prepared for real-time PCR analysis.
RECK expression levels were normalized to GAPDH and the mean level of RECK expression at t=0 was defined as 1.0.

RECK gene [3] = assay: RECK expression in liver of wildtype, FXR deficient and SHP deficient mice, real-time PCR of liver RNA; format: in vivo, mouse; details: 30 mg/kg by gavage once a day for 7 days
Method: Wildtype or FXR deficient mice on the C57B1/6 background and wildtype or SHP deficient mice on the 129 background were fed a standard chow diet. Mice were administered vehicle or 30 mg/kg Compound A by gavage once a day for 7 days. Four hours after the final treatment, mice were euthanized and real-time PCR analysis of liver RNA was performed.
RECK expression levels were normalized to GAPDH and the mean level of RECK expression in vehicle treated female C57B1/6 mice was defined as 1.0. Data are presented as the mean ±SEM. 6 mice were tested in each group. […] (p<0.01). […] (p<0.01).

RECK gene [4] = assay: RECK expression in liver of male LDLR deficient mice, real-time PCR of liver RNA; format: in vivo, mouse; details: Western diet, 30 mg/kg by gavage once a day for 7 days, liver RNA 4 h after final treatment, p<0.01
Method: Male LDLR deficient mice, fed a Western diet, were administered vehicle or 30 mg/kg Compound A [isopropyl 3-(3,4-difluorobenzoyl)-1,1-dimethyl-1,2,3,6-tetrahydroazepino[4,5-b]indole-5-carboxylate] by gavage once a day for 7 days. Four hours after the final treatment, mice were euthanized and real-time PCR analysis of liver RNA was performed.
RECK expression levels were normalized to GAPDH and the mean level of RECK expression in vehicle treated mice was defined as 1.0. Data are presented as the mean ± standard error of the mean (SEM). 6 mice were tested in each group.

RECK gene [5] = assay: RECK expression in human hepatocytes, real-time PCR; format: cell-based; details: 1 μM, 24 hours of treatment, p<0.05
Method: Confluent monolayers of human hepatocytes in 24-well plates, cultured in InVitroGRO HI medium, were treated with DMSO vehicle or Compound A. After 24 hours of treatment, the cells were harvested and RNA was prepared for real time PCR analysis.
RECK expression was normalized to GAPDH, and the mean level of RECK expression in DMSO treated cells was defined as 1.0. The data are presented as the mean ± SEM from triplicate determinations.

| SMILES | RECK expression, fold induction relative to t=0 (RECK gene [1]; liver RNA) | Time after administration at which induction of RECK expression was observed (RECK gene [1]; expression continued to increase at later time points, p<0.01) [h] | Time of peak RECK expression following treatment (RECK gene [2]) [h] | RECK expression, fold induction relative to t=0 (RECK gene [2]) | RECK expression (normalized to GAPDH) (RECK gene [3]; FXR deficient mice (C57B1/6 background)) | RECK expression (normalized to GAPDH) (RECK gene [3]; SHP deficient mice (129 background), p=0.02 in males, p<0.01 in females) | RECK expression (normalized to GAPDH) (RECK gene [3]; male and female wildtype C57B1/6 mice, p<0.01) | Induction of RECK expression, female compared to male (RECK gene [3]; wildtype 129 mice, p<0.01) | Induction of RECK expression, female compared to male (RECK gene [3]; wildtype C57B1/6 mice) | RECK expression (normalized to GAPDH, vehicle = 1.0) (RECK gene [4]) | RECK expression (normalized to GAPDH, DMSO = 1.0) (RECK gene [5]) |
| --- | --- | --- | --- | --- | --- | --- | --- | --- | --- | --- | --- |
| CC(C)OC(=O)C1=CN(C(=O)c2ccc(F)c(F)c2)CC(C)(C)c2c1[nH]c1ccccc21 [Compound A, isopropyl 3-(3,4-difluorobenzoyl)-1,1-dimethyl-1,2,3,6-tetrahydroazepino[4,5-b]indole-5-carboxylate] | induced RECK expression | ≤ 2 | 4 | induced RECK expression | failed to induce RECK expression | induction of RECK expression was observed | induced expression of the RECK gene | enhanced compared to male 129 mice | Enhanced induction of RECK expression was observed in female compared to male | RECK expression is induced | induced expression of the RECK gene |
| CC(C)c1onc(-c2c(Cl)cccc2Cl)c1COc1ccc(/C=C/c2cccc(C(=O)O)c2)c(Cl)c1 [Compound B, (E)-3-(2-chloro-4-((3-(2,6-dichlorophenyl)-5-isopropylisoxazol-4-yl)methoxy)styryl)benzoic acid, reference compound] | – | – | 4 | induced RECK expression | – | – | – | – | – | – | – |
